pIC50: −log10 of the molar value. Like-named read-outs stand apart in the source and are kept apart here.
Tests used:
HeLa cancer cells [1] = assay: Morphological study under normal inverted microscope, HeLa; format: cell-based, human; settings: treated at IC50 value, 24, 48 and 72 hours
Experimental: (§1) Treated cancer cells of HeLa and Caov-3 in 96-well plates were observed under normal inverted microscope following 24, 48 and 72 hours of incubation. Apoptotic features of treated cells were examined and compared concurrently to untreated cells. The cells were observed under inverted microscope at magnification 20×10.

[2] = system: cervical cancer cells (HeLa cells); assay: TUNEL assay apoptosis, HeLa; format: cell-based, human; settings: IC50 values, 24 and 48 hours, P<0.01 vs control
From the text: Apoptosis was quantified manually after TUNEL Assay. Data shown are mean±SD from duplicate samples. A double dagger denotes a P of <0.01 when compared with control as performed by One-Way ANOVA;

HeLa cancer cells [3] = assay: Confocal microscopy with AO/PI stain, HeLa; format: cell-based, human; settings: 48 hours, laser scanning confocal microscopy
Experimental: The plates were removed from the incubator after 24 and 48 hours of incubation period. The medium containing cells was transferred into labeled Eppendorf tubes (of each treated samples) placed in ice. The remaining cells in the wells were trypsinised until all cells were detached from the surfaces of each well. The medium containing cells in the Eppendorf tube was then transferred into the well of the tissue culture plate (of similar sample) to neutralise the trypsin. The medium in the wells was later transferred back into the Eppendorf tube (of similar sample) and centrifuged at 3000 rpm for 5 minutes, 4° C. Supernatant was discarded and 1 mL of 70% of cold alcohol was added. The pellet was re-suspended and placed in ice for 15 minutes for fixation. The samples were then centrifuged again at 3000 rpm for 5 minutes, 4° C. The supernatants containing the alcohol were discarded. The pellet was then re-suspended in 1 mL of phosphate buffer saline (PBS) and placed in ice for 10 minutes. The samples were centrifuged again, re-suspended in 1 mL of PBS and placed in ice for 10 minutes. This procedure was repeated again before discarding the supernatant.
The pellet containing cells was re-suspended with 15 μl of 10 μg/mL AO/PI mixture. Approximately 10 μl of the cell suspension was placed on a glass slide, and anti-fading agents were added onto the cells. […]

[4] = system: ovarian carcinoma cells (Caov-3 cells); assay: TUNEL assay apoptosis, Caov-3; format: cell-based, human; settings: Caov-3, IC50 values, 24 and 48 hours, P<0.05 or P<0.01 vs control
From the text: Apoptotic cells were quantified manually after TUNEL Assay. Data shown are mean±SD from duplicate samples. A single dagger denotes a P of <0.05 when compared with control; a double dagger denotes a P of <0.01 when compared with control as performed by One-Way ANOVA;

[5] = system: induced cervical cancer in female balb/c mice; assay: DES-induced cervical cancer in female balb/c mice, cervical histology (H&E); format: in vivo; settings: intra peritoneal, 4 dosages on alternate days, normal saline group CIN III
Experimental: 1 male mouse was cohabitate with 3 female mice for 48 hours prior to experiment to stimulate the ovulation of the female mice. After 48 hours, 1 male mouse was cohabitate with 1 female mouse. The next morning, the female mice were checked for a vaginal plug. The detection of vaginal plug at the vagina of the female mice were considered as the first day of pregnancy and gestation day (G=0). Once the female mouse was pregnant the corresponding male mouse was separated from the cage. Only one pregnant female mouse was placed in each cage to reduce the stress among the mice and also to reduce the chances of cannibalization of offspring by the mothers. The pregnant mice were given subcutaneous injection of 67 μg/kg body weight diethylstilbestrol (DES) dissolved in sesame oil (refer to appendix for DES preparation) from gestation day (13 to 18). Since the reproductive tract is developing during this time, so giving the DES injection too early may cause stillbirth. The mice gave birth approximately at gestation day (19 to 22). The offspring were weaned at 22 days of age. 1 female offspring was subjected for the confirmation of cervical dysplasia at 41 days of age. The other offspring were subjected for the treatment with cisplatin, zerumbone and normal saline.
All female offspring exposed to DES in uteri were pooled together and were divided into 4 groups where each group consists of 3 mice. […]

Caov-3 cancer cells = assay: Morphological study under normal inverted microscope, Caov-3; format: cell-based, human; settings: Caov-3, treated at IC50 value, 24, 48 and 72 hours
Experimental: as §1

serum IL-6 = assay: Serum IL-6 ELISA in mice with induced cervical cancer; format: in vivo; settings: for Serum IL-6 levels vs normal saline treated mice: mice with induced cervical cancer, P<0.01 One-Way ANOVA
Experimental: All female offspring exposed to DES in uteri were pooled together and were divided into 4 groups where each group consists of 3 mice. The 5th group consists of 3 mice which was non-exposed to DES. The mice were given treatment starting from 46 days of age to 52 days of age. The treatment was given every alternate day (day 46, 48, 50, 52) which consist of 4 dosages. The treatment was given through intra peritoneal injection. The group 1 mice were treated with 0.9% of Normal Saline and this group acts as a positive control group. The group 2 mice were given 8 mg/kg of Zerumbone while the group 3 mice were given 16 mg/kg of Zerumbone. […] Finally no treatment was given to the mice in group 5 as they act as a negative control (normal mice) for the studies. Following treatment, all the mice were sacrificed at 54 days of age. The blood sample was collected through heart punctured method into a plain tube and was centrifuged at 3000 rpm for 15 minutes. The supernatant (serum) was collected into an eppendorf tube and was immediately stored in ice (0° C.—temporary storage). Once serum from all the samples was collected, the serum was stored at −20° C. Then the mice were dissected. The reproductive organ of the mice were collected and washed with 0.9% normal saline. The washed organ was soaked in 10% formalin and stored at room temperature.
The IL-6 serum levels in normal mice were used as negative control.

[6] = system: human cervical cancer cells, HeLa; assay: Micro Tetrazolium (MTT) cytotoxicity assay on HeLa
Experimental: HeLa and Caov-3 cell lines were maintained in RPMI 1640 and DMEM high glucose respectively, supplemented with 10% FCS, 1% penicillin and 1% streptomycin. Cells were allowed to proliferate as monolayer cultures in 25 cm^2 and 75 cm^2 tissues culture flasks, in a humidified atmosphere containing 5% CO2 at 37° C.
A haemacytometer was used to determine the concentration of cells in the flask. Confluent cells were trypsinised in order to detach cells from surface of the flask. 10 mL of fresh medium was added into the flask and the cells were suspended thoroughly. 10 μl of medium from the flask was then transferred into a haemacytometer with cover slip. The counting was done under an inverted microscope and facilitated by manual counter usage. The cell density (for an example 1×10^5 cells/mL) was calculated. Using a multi-channel pipette, 100 μl of cell culture solution was transferred into each well of a 96-well microtiter plate. For a 6 well microtiter plate, 2 ml of the cell culture solution was pipetted instead. The plate was incubated overnight at 37° C. in 5% CO2.
The concentrations of zerumbone in each experiment varied according to the optimization of the experiment conducted. The controls or untreated cells received only medium without any treatment of either compounds. Treated cells were then incubated at 37° C. in 5% CO2.
This assay is based on the metabolic reduction of soluble MTT by mitochondrial enzyme activity of viable cancer cells, into an insoluble coloured formazan product, which can be measured spectrophotometrically after dissolution in dimethyl sulfoxide (DMSO) (Carmichale et al., 1987). The MTT assay was conducted according to the methods of Kumi-Diaka et at (1998) with minor modifications. The concentration of MTT solution used was 5 mg/mL. The MTT solution was prepared by dissolving 250 mg of MTT powder in 50 mL of phosphate buffer saline (PBS). A 0.2 micron syringe filter was used to filter the dissolved MTT. The filtered MTT solution was transferred into a sterile 50 mL centrifuge tube and covered with aluminum foil. This solution was stored in 4° C. and is ready to be used. The MTT assay was carried out as follows:
96-well microtiter plates containing cell culture solution were removed from the incubator after 72 hours incubation. 20 μl of 5 mg/mL MTT solution was added into each well including control wells. The plates were then wrapped with aluminium foil and incubated further for 4 hours at 37° C. in 5% CO2. After incubation, excess MTT reagent was aspirated and 100 μl of DMSO was added to dissolve the remaining purple colour formazan crystals. The plates were gently mixed on a plate shaker for approximately 4 minutes. The absorbance of the formazan solution was determined at 450 nm using a microplate reader.

HeLa cells = assay: Cell cycle study by flow cytometry, HeLa; format: cell-based, human; settings: 24 hours, zerumbone 0 to 45 μM
Experimental: Cells were plated in 25 cm^2 tissue culture flasks at concentrations of 0.5×10^5 cells/mL. After an overnight incubation, the cells were cultured in the presence of zerumbone at concentrations as indicated above for 24 hours. Cells were harvested using trypsin-EDTA before centrifuging at 3000 rpm for 5 minutes. The cells pellet was then re-suspended in 2 mL of phosphate buffer saline (PBS). The re-suspended cells were centrifuged at 3000 rpm for 5 minutes and the resulting cells pellet was re-suspended again in 1 mL of cold PBS. The cells were fixed by the addition of 4 mL of cold absolute ethanol (kept in −20° C. prior to use). The fixed cells were stored in −20° C. overnight before resuming the staining procedure.

Coa3 cancer cells = assay: Cell cycle study by flow cytometry, Caov-3; format: cell-based, human; settings: Coa3 (Caov-3) cancer cells

Structure (SMILES)	Morphological changes / cell growth vs untreated control (HeLa cancer cells [1])	Apoptosis quantified after TUNEL Assay [2]	Morphological changes after AO/PI staining (HeLa cancer cells [3])	Apoptosis, apoptotic cells quantified after TUNEL Assay [4]	Cervical tissue dysplasia grade (CIN) ([5]; 10 mg/kg cisplatin)	Morphological changes / cell growth vs untreated control (Caov-3 cancer cells)	Serum IL-6 levels vs normal mice (negative control) (serum IL-6; 10 mg/kg cisplatin)	Serum IL-6 levels vs normal saline treated mice (serum IL-6)	IC50 value, growth proliferation of HeLa ([6]; MTT, 72-hours post-treatment) [µg/mL]	pIC50 ([6]; read-out: IC50 value (±S.E.M), growth proliferation of HeLa, MTT, 72-hours post-treatment)	Cell cycle progression (G2/M, G1, S phase) (HeLa cells)	Cervical tissue dysplasia grade (CIN) ([5]; 16 mg/kg zerumbone)	Cell cycle progression (G2/M, G1, S phase) (Coa3 cancer cells)	Serum IL-6 levels vs normal mice (negative control) (serum IL-6; 16 mg/kg zerumbone)	pIC50 ([6]; Homo sapiens, 72 h, read-out: IC50 value (±S.E.M), growth proliferation of HeLa)	IC50 ([6]; Homo sapiens, 72 h, read-out: IC50 value, growth proliferation of HeLa) [µg/mL]
N.N.[Cl][Pt][Cl] [cisplatin, reference compound]	Prominent growth retardation	induced apoptosis	blebbing of the cell membrane, nuclear condensation with margination and nuclear damage	induced apoptosis	mild dysplastic changes (CIN I)	Prominent growth retardation	almost near to the serum level of normal mice	lower	1.6	5.12	–	–	–	–	–	–
C/C1=C\CC(C)(C)/C=C/C(=O)/C(C)=C/CC1 [zerumbone]	Prominent growth retardation	induced apoptosis	blebbing of the cell membrane, nuclear condensation with margination and nuclear damage	induced apoptosis	–	Prominent growth retardation	–	lower	–	–	increase in the number of HeLa cancer cells and Coa3 cancer cells in the G2/M phase and a decrease in the G1 phase and S phase	mild dysplastic changes (CIN I)	increase in the number of HeLa cancer cells and Coa3 cancer cells in the G2/M phase and a decrease in the G1 phase and S phase	almost near to the serum level of normal mice	4.95	2.5
